Data as given in ChEMBL document CHEMBL1201862, “PubChem BioAssay data set” (2004).
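Compound exposure: 48 hours, 5 concentrations, 96-well plates. GI50: concentration for 50% inhibition of growth.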 Calls of active or inactive are those of the source. Cut-off read from the data, not from the text of the source: active = GI50 up to about 1.1 µM and inactive = higher.

Assays:
Assay in all cases: DTP human tumour cell line panel, 48 h
KM12 = system: KM12
HL-60 = system: HL-60
BT-549 = system: BT-549
SK-OV-3 = system: SK-OV-3
COLO 205 = system: COLO 205
HCC 2998 = system: HCC 2998
HT-29 = system: HT-29
HCT-116 = system: HCT-116
PC-3 = system: PC-3
IGROV-1 = system: IGROV-1
OVCAR-3 = system: OVCAR-3
OVCAR-5 = system: OVCAR-5
SR = system: SR
SNB-75 = system: SNB-75
T47D = system: T47D
MOLT-4 = system: MOLT-4
UO-31 = system: UO-31
M14 = system: M14
SW-620 = system: SW-620
UACC-257 = system: UACC-257

Measured: GI50

COc1cccc(N2C(=O)CSC2c2c[nH]c3ccccc23)c1 (stereo not given)
inactive: KM12 > 100 µM | HL-60 > 100 µM | BT-549 > 100 µM | SK-OV-3 > 100 µM | COLO 205 > 100 µM | HCC 2998 > 100 µM | HT-29 > 100 µM | HCT-116 > 100 µM | PC-3 > 100 µM | IGROV-1 > 100 µM | OVCAR-3 > 100 µM | OVCAR-5 > 100 µM | SR > 100 µM | SNB-75 > 100 µM | T47D > 100 µM | MOLT-4 > 100 µM | UO-31 > 100 µM | M14 > 100 µM | SW-620 > 100 µM | UACC-257 > 100 µM
